In patent US20110224210A1, “NOVEL BIS-AMIDES AS ANTI-MALARIAL AGENTS” (priority 2008, published 2011):

test system: P. falciparum K1 (strain resistant to chloroquine and pyrimethamine), erythrocytic stages; test: Plasmodium falciparum in vitro assay, [3H] hypoxanthine incorporation; format: cell-based; conditions: Plasmodium falciparum, K1, P. falciparum strain K1; [3H] hypoxanthine incorporation; read-out: IC50 (nM) on K1
Outline: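 Chloroquine/pyrimethamine-resistant K1 erythrocytic cultures (2.5% haematocrit, 0.3% parasitaemia, hypoxanthine-free RPMI with Albumax) exposed to seven doubling dilutions at 37 °C under low O2.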

IC50 [nM]	Compound
27	CC(=O)N1CCN(c2ccc(CN(C(=O)C=Cc3ccc(C(F)(F)F)cc3)[C@@H](Cc3ccccc3)C(=O)N(C)CCN(C)Cc3ccc(O)cc3)cc2)CC1 [Example 238, (S)-N-[4-(4-Acetyl-piperazin-1-yl)-benzyl]-N-[1-({2-[(4-hydroxy-benzyl)-methyl-amino]-ethyl}-methyl-carbamoyl)-2-phenyl-ethyl]-3-(4-trifluoromethyl-phenyl)-acrylamide]
61	CCN(CC)c1ccc(CN(C)CCN(C)C(=O)[C@H](Cc2ccccc2)N(Cc2ccc(N3CCN(C(C)=O)CC3)cc2)C(=O)C=Cc2ccc(C(F)(F)F)cc2)cc1 [Example 239, (S)-N-[4-(4-Acetyl-piperazin-1-yl)-benzyl]-N-[1-({2-[(4-diethylamino-benzyl)-methyl-amino]-ethyl}-methyl-carbamoyl)-2-phenyl-ethyl]-3-(4-trifluoromethyl-phenyl)-acrylamide]
28	CC(=O)N1CCN(c2ccc(CN(C(=O)C=Cc3ccc(C(F)(F)F)cc3)[C@@H](Cc3ccccc3)C(=O)N(C)CCN(C)Cc3cccc(O)c3)cc2)CC1 [Example 240, (S)-N-[4-(4-Acetyl-piperazin-1-yl)-benzyl]-N-[1-({2-[(3-hydroxy-benzyl)-methyl-amino]-ethyl}-methyl-carbamoyl)-2-phenyl-ethyl]-3-(4-trifluoromethyl-phenyl)-acrylamide]
27	CC(=O)N1CCN(c2ccc(CN(C(=O)C=Cc3ccc(C(F)(F)F)cc3)[C@@H](Cc3ccccc3)C(=O)N(C)CCN(C)Cc3cccnc3)cc2)CC1 [Example 241, (S)-N-[4-(4-Acetyl-piperazin-1-yl)-benzyl]-N-(1-{methyl-[2-(methyl-pyridin-3-ylmethyl-amino)-ethyl]-carbamoyl}-2-phenyl-ethyl)-3-(4-trifluoromethyl-phenyl)-acrylamide]
14	CC(=O)N1CCN(c2ccc(CN(C(=O)C=Cc3ccc(C(F)(F)F)cc3)[C@@H](Cc3ccccc3)C(=O)N(C)CCN(C)Cc3cccc(OCCO)c3)cc2)CC1 [Example 242, (S)-N-[4-(4-Acetyl-piperazin-1-yl)-benzyl]-N-{1-[(2-{[3-(2-hydroxy-ethoxy)-benzyl]-methyl-amino}-ethyl)-methyl-carbamoyl]-2-phenyl-ethyl}-3-(4-trifluoromethyl-phenyl)-acrylamide]
52	CC(=O)N1CCN(c2ccc(CN(C(=O)C=Cc3ccc(C(F)(F)F)cc3)[C@@H](Cc3ccccc3)C(=O)N(C)CCN(C)Cc3cccc(C#N)c3)cc2)CC1 [Example 243, (S)-N-[4-(4-Acetyl-piperazin-1-yl)-benzyl]-N-[1-({2-[(3-cyano-benzyl)-methyl-amino]-ethyl}-methyl-carbamoyl)-2-phenyl-ethyl]-3-(4-trifluoromethyl-phenyl)-acrylamide]
19	CC(=O)N1CCN(c2ccc(CN(C(=O)C=Cc3ccc(C(F)(F)F)cc3)[C@@H](Cc3ccccc3)C(=O)N(C)CCN(C)Cc3ccc(OC(C)C)cc3)cc2)CC1 [Example 244, (S)-N-[4-(4-Acetyl-piperazin-1-yl)-benzyl]-N-[1-({2-[(4-isopropoxy-benzyl)-methyl-amino]-ethyl}-methyl-carbamoyl)-2-phenyl-ethyl]-3-(4-trifluoromethyl-phenyl)-acrylamide]
87	CC(=O)N1CCN(c2ccc(CN(C(=O)C=Cc3ccc(C(F)(F)F)cc3)[C@@H](Cc3ccccc3)C(=O)N(C)CCN(C)Cc3ccc4c(c3)OCCN4C)cc2)CC1 [Example 245, (S)-N-[4-(4-Acetyl-piperazin-1-yl)-benzyl]-N-[1-(methyl-{2-[methyl-(4-methyl-3,4-dihydro-2H-benzo[1,4]oxazin-7-ylmethyl)-amino]-ethyl}-carbamoyl)-2-phenyl-ethyl]-3-(4-trifluoromethyl-phenyl)-acrylamide]
64	CC(=O)N1CCN(c2ccc(CN(C(=O)C=Cc3ccc(C(F)(F)F)cc3)[C@@H](Cc3ccccc3)C(=O)N(C)CCN(C)Cc3ccc(OCCCN(C)C)cc3)cc2)CC1 [Example 246, (S)-N-[4-(4-Acetyl-piperazin-1-yl)-benzyl]-N-{1-[(2-{[4-(3-dimethylamino-propoxy)-benzyl]-methyl-amino}-ethyl)-methyl-carbamoyl]-2-phenyl-ethyl}-3-(4-trifluoromethyl-phenyl)-acrylamide]
26	COc1ccc(CN(C)CCN(C)C(=O)[C@H](Cc2ccccc2)N(Cc2ccc(N3CCN(C(C)=O)CC3)cc2)C(=O)C=Cc2ccc(C(F)(F)F)cc2)cn1 [Example 247, (S)-N-[4-(4-Acetyl-piperazin-1-yl)-benzyl]-N-[1-({2-[(6-methoxy-pyridin-3-ylmethyl)-methyl-amino]-ethyl}-methyl-carbamoyl)-2-phenyl-ethyl]-3-(4-trifluoromethyl-phenyl)-acrylamide]
21	CC(=O)N1CCN(c2ccc(CN(C(=O)C=Cc3ccc(C(F)(F)F)cc3)[C@@H](Cc3ccccc3)C(=O)N(C)CCN(C)Cc3nccs3)cc2)CC1 [Example 248, (S)-N-[4-(4-Acetyl-piperazin-1-yl)-benzyl]-N-(1-{methyl-[2-(methyl-thiazol-2-ylmethyl-amino)-ethyl]-carbamoyl}-2-phenyl-ethyl)-3-(4-trifluoromethyl-phenyl)-acrylamide]
39	CC(=O)N1CCN(c2ccc(CN(C(=O)C=Cc3ccc(C(F)(F)F)cc3)[C@@H](Cc3ccccc3)C(=O)N(C)CCN(C)Cc3ccc4c(c3)OCO4)cc2)CC1 [Example 249, (S)-N-[4-(4-Acetyl-piperazin-1-yl)-benzyl]-N-(1-{[2-(benzo[1,3]dioxol-5-ylmethyl-methyl-amino)-ethyl]-methyl-carbamoyl}-2-phenyl-ethyl)-3-(4-trifluoromethyl-phenyl)-acrylamide]
27	CC(=O)N1CCN(c2ccc(CN(C(=O)C=Cc3ccc(C(F)(F)F)cc3)[C@@H](Cc3ccccc3)C(=O)N(C)CCN(C)Cc3cncnc3)cc2)CC1 [Example 250, (S)-N-[4-(4-Acetyl-piperazin-1-yl)-benzyl]-N-(1-{methyl-[2-(methyl-pyrimidin-5-ylmethyl-amino)-ethyl]-carbamoyl}-2-phenyl-ethyl)-3-(4-trifluoromethyl-phenyl)-acrylamide]
53	CC(=O)N1CCN(c2ccc(CN(C(=O)C=Cc3ccc(C(F)(F)F)cc3)[C@@H](Cc3ccccc3)C(=O)N(C)CCN(C)Cc3ccc(C)c(F)c3F)cc2)CC1 [Example 251, (S)-N-[4-(4-Acetyl-piperazin-1-yl)-benzyl]-N-[1-({2-[(2,3-difluoro-4-methyl-benzyl)-methyl-amino]-ethyl}-methyl-carbamoyl)-2-phenyl-ethyl]-3-(4-trifluoromethyl-phenyl)-acrylamide]
80	CC(=O)N1CCN(c2ccc(CN(C(=O)C=Cc3ccc(C(F)(F)F)cc3)[C@@H](Cc3ccccc3)C(=O)N(C)CCN(C)Cc3cnc[nH]3)cc2)CC1 [Example 252, (S)-N-[4-(4-Acetyl-piperazin-1-yl)-benzyl]-N-[1-({2-[(3H-imidazol-4-ylmethyl)-methyl-amino]-ethyl}-methyl-carbamoyl)-2-phenyl-ethyl]-3-(4-trifluoromethyl-phenyl)-acrylamide]
19	CC(=O)N1CCN(c2ccc(CN(C(=O)C=Cc3ccc(C(F)(F)F)cc3)[C@@H](Cc3ccccc3)C(=O)N(C)CCN(C)Cc3ccncc3)cc2)CC1 [Example 253, (S)-N-[4-(4-Acetyl-piperazin-1-yl)-benzyl]-N-(1-{methyl-[2-(methyl-pyridin-4-ylmethyl-amino)-ethyl]-carbamoyl}-2-phenyl-ethyl)-3-(4-trifluoromethyl-phenyl)-acrylamide]
